How the values were obtained:
Type in all cases: in vivo
[1] = tested on: Ambrosia elatior; assay: greenhouse post-emergence treatment, AMBEL; conditions: AMBEL, 20 DAT
In short: (§1)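 Plants in loamy sand (~3.0% humus) were sprayed post-emergence at 3–15 cm height with actives in a water spray liquor made from 10% by weight emulsion concentrates. Plants were kept at 10-25° C. or 20-35° C. by species and rated over 2–4 weeks on a 0–100 scale (100 = complete destruction). Colby's E = X+Y−(X·Y/100) gave the expected additive effect.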

[2] = tested on: Papaver rhoeas; assay: greenhouse post-emergence treatment, PAPRH; conditions: Papaver rhoeas, 480 h, 20 DAT, PAPRH
In short: (§2)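 Each species was grown separately and treated once it reached 3 to 15 cm, using actives suspended or emulsified in water. Plants were kept at 10-25° C. or 20-35° C., depending on species. Damage is a 0–100 rating taken during 2 to 4 weeks.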

[3] = tested on: Echinocloa crus-galli; assay: greenhouse post-emergence treatment, ECHCG; conditions: ECHCG, 20 DAT
In short: as §2

[4] = tested on: Matricaria chamomilla; assay: greenhouse post-emergence treatment, MATCH; conditions: Matricaria chamomilla, 480 h, 20 DAT, MATCH
In short: as §2

[5] = tested on: Alopecurus myosuroides; assay: greenhouse post-emergence treatment, ALOMY; conditions: Alopecurus myosuroides, 480 h, 20 DAT, ALOMY
In short: (§3)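 Greenhouse test in humus-containing (~3.0%) loamy sand at species-dependent temperatures of 10-25° C. or 20-35° C.; treatments applied in water. Damage rated visually after 2–4 weeks (0 = none, 100 = complete destruction or no emergence).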

[6] = tested on: Bromus sterilis; assay: greenhouse post-emergence treatment, BROST; conditions: Bromus sterilis, 480 h, 20 DAT, BROST
In short: as §3

[7] = tested on: Setaria viridis; assay: greenhouse post-emergence treatment, SETVI; conditions: Setaria viridis, 480 h, 20 DAT, SETVI, Table X3, read-out: % activity, solo application
In short: as §3

[8] = tested on: Digitaria sanguinalis; assay: greenhouse post-emergence treatment, DIGSA; conditions: Digitaria sanguinalis, 480 h, 20 DAT, DIGSA
In short: as §3

[9] = tested on: Brachiaria decumbens; assay: greenhouse post-emergence treatment, BRADC; conditions: Urochloa decumbens, 480 h, 20 DAT, BRADC
In short: as §1

[10] = tested on: Poa annua; assay: greenhouse post-emergence treatment, POAAN; conditions: Poa annua, 480 h, POAAN, bentazon solo 60 gai/ha, 20 DAT
In short: as §1

[11] = tested on: Ambrosia elatior; assay: greenhouse pre-emergence treatment, AMBEL; conditions: Ambrosia artemisiifolia, 480 h, AMBEL, 20 DAT
In short: (§4)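 Seeds were sown per species in pots of loamy sand with about 3.0% humus, sprayed with the aqueous spray liquor directly after sowing, watered and hooded until rooted, then kept at 10-25° C. or 20-35° C. for 2 to 4 weeks. Damage was scored 0 (none) to 100 (no emergence/complete destruction).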

[12] = tested on: Avena fatua; assay: greenhouse pre-emergence treatment, AVEFA; conditions: Avena fatua, 480 h, AVEFA, chlorotoluron solo 62.5 gai/ha, 20 DAT
In short: as §4

[13] = 120 gai/ha (SL 480 g/l), Table X3, read-out: % activity, solo application
[14] = 30 gai/ha (SL 480 g/l), Table X3, read-out: % activity, solo application
[15] = 60 gai/ha (SL 480 g/l), Table X3, read-out: % activity, solo application
[16] = chlorotoluron solo 125 gai/ha, read-out: % activity
[17] = chlorotoluron solo 250 gai/ha, read-out: % activity

SMILES: CC(C)N1C(=O)c2ccccc2NS1(=O)=O [bentazon]
- % activity ([1]; bentazon solo 30 gai/ha): 60%
- % activity ([1]; bentazon solo 60 gai/ha): 60%
- inhibition at 120 g/ha [2, 13]: 0%
- pest or weed control at 30 g/ha ([2]; bentazon solo 30 gai/ha): 0%
- pest or weed control at 60 g/ha ([2]; bentazon solo 60 gai/ha): 0%
- pest or weed control at 120 g/ha ([2]; bentazon solo 120 gai/ha): 0%
- % activity ([3]; bentazon solo 30 gai/ha): 0%
- % activity ([3]; bentazon solo 60 gai/ha): 0%
- % activity ([3]; bentazon solo 120 gai/ha): 0%
- % activity ([3]; bentazon solo 240 gai/ha): 20%
- inhibition at 60 g/ha ([3]; Echinochloa crus-galli, 480 h, 60 gai/ha (SL 480 g/l), Table X3, read-out: % activity, solo application): 0%
- inhibition at 120 g/ha ([3]; Echinochloa crus-galli, 480 h, 120 gai/ha (SL 480 g/l), Table X3, read-out: % activity, solo application): 0%
- inhibition at 240 g/ha ([3]; Echinochloa crus-galli, 480 h, 240 gai/ha (SL 480 g/l), Table X3, read-out: % activity, solo application): 20%
- inhibition at 30 g/ha [4, 14]: 20%
- inhibition at 60 g/ha [4, 15]: 30%
- pest or weed control at 30 g/ha ([4]; bentazon solo 30 gai/ha): 0%
- pest or weed control at 60 g/ha ([4]; bentazon solo 60 gai/ha): 0%
- pest or weed control at 120 g/ha ([4]; bentazon solo 120 gai/ha): 0%
- inhibition at 120 g/ha [5, 13]: 0%
- inhibition at 240 g/ha ([5]; 240 gai/ha (SL 480 g/l), Table X3, read-out: % activity, solo application): 0%
- pest or weed control at 60 g/ha ([5]; bentazon solo 60 gai/ha): 0%
- pest or weed control at 240 g/ha ([5]; bentazon solo 240 gai/ha): 0%
- inhibition at 60 g/ha [6, 15]: 0%
- pest or weed control at 30 g/ha ([6]; bentazon solo 30 gai/ha): 0%
- pest or weed control at 60 g/ha ([6]; bentazon solo 60 gai/ha): 0%
- pest or weed control at 120 g/ha ([6]; bentazon solo 120 gai/ha): 0%
- pest or weed control at 240 g/ha ([6]; bentazon solo 240 gai/ha): 0%
- inhibition at 60 g/ha ([7]; 60 gai/ha (SL 480 g/l)): 0%
- inhibition at 240 g/ha ([7]; 240 gai/ha (SL 480 g/l)): 30%
- inhibition at 30 g/ha [8, 14]: 0%
- inhibition at 60 g/ha [8, 15]: 0%
- pest or weed control at 30 g/ha ([8]; bentazon solo 30 gai/ha): 0%
- pest or weed control at 60 g/ha ([8]; bentazon solo 60 gai/ha): 0%
- pest or weed control at 120 g/ha ([8]; bentazon solo 120 gai/ha): 0%
- pest or weed control at 240 g/ha ([8]; bentazon solo 240 gai/ha): 30%
- inhibition at 30 g/ha [9, 14]: 0%
- inhibition at 60 g/ha [9, 15]: 0%
- inhibition at 120 g/ha [9, 13]: 0%
- pest or weed control at 30 g/ha ([9]; bentazon solo 30 gai/ha): 0%
- pest or weed control at 60 g/ha ([9]; bentazon solo 60 gai/ha): 0%
- pest or weed control at 240 g/ha ([9]; bentazon solo 240 gai/ha): 20%
- pest or weed control at 60 g/ha [10]: 0%

SMILES: Cc1ccc(NC(=O)N(C)C)cc1Cl [chlorotoluron]
- pest or weed control at 125 g/ha ([11]; chlorotoluron solo 125 gai/ha): 0%
- pest or weed control at 500 g/ha ([11]; chlorotoluron solo 500 gai/ha): 40%
- pest or weed control at 62.5 g/ha ([2]; chlorotoluron solo 62.5 gai/ha): 0%
- pest or weed control at 125 g/ha [2, 16]: 0%
- pest or weed control at 250 g/ha [2, 17]: 20%
- pest or weed control at 500 g/ha ([2]; chlorotoluron solo 500 gai/ha, read-out: % activity): 25%
- % activity ([3]; chlorotoluron solo 500 gai/ha): 65%
- pest or weed control at 125 g/ha ([4]; chlorotoluron solo 125 gai/ha): 50%
- pest or weed control at 125 g/ha [5, 16]: 30%
- pest or weed control at 250 g/ha [5, 17]: 40%
- pest or weed control at 500 g/ha ([5]; chlorotoluron solo 500 gai/ha): 65%
- pest or weed control at 62.5 g/ha [12]: 0%
- pest or weed control at 62.5 g/ha ([6]; chlorotoluron solo 62.5 gai/ha, read-out: % activity): 0%
- pest or weed control at 125 g/ha [6, 16]: 0%
